Data: patent US20250002532A1, “A NOVEL PEPTIDE AND THE USE THEREOF” (Rudacure Corporation, priority 2023, published 2025)
Entries after “also recorded” stand apart in the source; their conditions may differ. Residues, ends and D or L forms follow the SMILES beside them. No end group written: not given here.

Assays:
pain caused by capsaicin = test: Capsaicin test (pain behavioral response); type: in vivo, C57BL/6N mouse; conditions: 0.5 mg/kg I.P. one hour before 0.01% capsaicin; 0 to 5 minutes; FIG. 5
Procedure: An in vivo test was performed with the peptides of SEQ ID NOS: 5, 6, 9, and 11.
• a. […] Preparation of positive control material: BCTC was homogeneously dissolved in a saline solution at a concentration of 3 mg/mL. • e.
• a. Preparation of test materials: The peptides of SEQ ID NOS: 5, 6, 9, and 11 were dissolved in a saline solution to prepare at a concentration of 0.05 mg/mL. • b.
• a. Saline solution, BCTC, and peptides of SEQ ID NOS: 5, 6, 9, and 11, the administered materials corresponding to each group, were administered in advance about one hour before capsaicin administration. • b. One hour after the test material administration to each group, 20 μL of 0.01% capsaicin was injected subcutaneously into the sole of the right foot. • c. After administering […] to each subject, the time at which pain behavioral responses (licking, biting, etc.) appeared was measured in the interval of 0 to 5 minutes. • d. Grooming in regions other than the region where capsaicin was administered was not counted. • e.
In a previous study, the pain inhibiting effect was confirmed through a formalin test. To confirm whether such pain inhibiting phenomenon is through TRPV1, the pain response pattern was investigated after subcutaneous injection of capsaicin, which is one of the TRPV1 activators.

hTRPV1 = target: T1, hTRPV1 (Homo sapiens, UniProt Q8NER1); test: Calcium imaging (Fura-2AM) of capsaicin-induced Ca2+ influx in TRPV1 CHO-K1 cells; type: cell-based; conditions: for inhibition at 0.001 µM: peptide at 1 nM; for inhibition at 0.005 µM: peptide at 5 nM; for inhibition at 0.1 µM: peptide at 100 nM; for influx of calcium into TRPV1 channel (ΔF/F): FIG. 1, peptide injected; for TRPV1 inhibitory activity / inhibition rate (screening): screening of peptides
T1 construct: expressed in transfected cells; the earlier reading calls it TRPV1 CHO-K1 cells
Procedure: The TRPV1 inhibitory effect of various short-length peptides, including the 49 peptides in Tables 5 and 6, was evaluated by the following method.
All reagents used in cell culture were sterilized products. The culture medium of the cell line is shown in Table 7 below, and the culture was performed in a cell incubator with under the culture conditions of […] and 37° C. In addition, when cryopreserved cells (stock) were thawed and used, they were subcultured two to three times before use in the test.
After removing the cell culture medium by suction, 10 ml DPBS was added to wash the cells, and then the DPBS was removed by suction. 2 ml 0.05% trypsin-EDTA was added, and then the cells were cultured in a cell incubator at 37° C. for three to five minutes. Through a microscope, detachment of the cells from the bottom surface of the culture dish was confirmed, and 8 ml of the cell culture medium including 10% FBS was added to inactivate the trypsin-EDTA. Cells in the culture dish were collected, pipetted, and transferred to a 15 ml tube.
Centrifugation was performed at 800 rpm for five minutes, and all the supernatant except the cell pellet was removed. Then, the cell culture medium was added, and the pellet was carefully loosened.
After measuring the number of cells with a hemocytometer, the cells were dispensed at 1×10^3 cells/10 μl/coverslip at the center of a 12 mm cover slip coated with poly-D-lysine.
A 35π petri dish containing the cover slip was stored in a cell incubator, and when the cells were attached to the cover slip after one to two hours, 2 ml of the cell culture medium was added and stored in the cell incubator again.
The sample was added to 200 ml distilled water (DW) and mixed according to the composition in Table 8 below.
The pH was adjusted to a range of 7.3 to 7.4 using 5 N NaOH, and then distilled water (DW) was added to adjust the final volume to 250 ml.
Capsaicin was dissolved in 100% ethanol to prepare a 10 mM stock. Capsaicin, a TRPV1 activating substance, was diluted in the extracellular solution to a concentration of 0.1-1 mM before using in the experiment.
The test material (peptide according to the present invention) was dissolved in a solvent and then diluted to an appropriate concentration in the extracellular solution before using in the experiment.
2 mM Fura-2AM was prepared by adding 24.95 ml of DMSO to 50 mg of Fura 2AM powder, which is used as a membrane-permeable fluorescent marker. After the experiment, the remaining Fura-2AM was stored at −20° C. for reuse and covered with silver foil to prevent exposure to light.
2 mM Fura-2AM was diluted 1/1000 in a cell culture medium without FBS and antibiotics to prepare 1 ml Fura-2AM (based on a 35π Petri dish) to a final concentration of […]. After removing the cell culture medium in the 35π Petri dish, the cells were washed once with 2 ml DPBS. 1 ml of the Fura-2AM solution prepared above was transferred to a 35π Petri dish, and the cells were cultured in a cell incubator for 40 min.
To operate calcium imaging equipment, an IRIS-9 camera was turned on and then a computer was powered on. To operate a perfusion system, a suction device was powered on, 20 to 30 ml of distilled water was added to each perfusion syringe, and suction was performed while allowing the distilled water to flow into the chamber (syringe wash).
The extracellular solution and test materials prepared in advance were placed in the syringes washed with distilled water, and smooth flow of the solutions from each syringe into the chamber was confirmed. At this time, clips were used to block all the lines except one syringe line to be checked. In other words, the flow of the solution through only a single syringe line without the clip was checked (When the solution flows through two or more lines, the solutions could have been mixed.).

CCI pain model = test: CCI pain model, Von Frey test; conditions: amount printed 1 mg/ml (0.1 mg/mL, 200 μL I.P.); two hours after administration; FIG. 6
CIPN pain model = test: CIPN (paclitaxel) pain model, Von Frey test; type: in vivo, SD rat; conditions: one, three and seven hours after administration, FIG. 8
Procedure: • a. […] Preparation of positive control material: Prebabalin was homogeneously dissolved in a saline solution at a concentration of 30 mg/10 mL and used. • e.
• a. […] Chemotherapy induced peripheral neuropathy (CIPN) pain modeling
Paclitaxel was dissolved at 2 mg/10 ml in a solution prepared by mixing cremophor EL and absolute ethanol at a 1:1 ratio, and the resulting solution was administered intraperitoneally in the amount of 2 ml each. Chemotherapy-induced pain was induced by administering paclitaxel once a day at 24-hour intervals for 4 days. • c. Confirmation of pain induction
Drug administration and confirmation of analgesic efficacy
Statistical analysis processing

pain caused by formalin = test: Formalin test (pain behavioral response); type: in vivo, ICR mouse; conditions: 2nd phase (20 to 40 minutes), vs saline group, FIG. 4
Procedure: An in vivo test was performed with the peptides of SEQ ID NOS: 11 and 12.
• a. […] Preparation of positive control material: Pregabalin was homogeneously dissolved in a saline solution at a concentration of 3 mg/mL. • e.
• a. Saline solution, pregabalin, peptide of SEQ ID NO: 11, and peptide of SEQ ID NO: 12, the administered materials corresponding to each group, were administered in advance about one hour before formalin administration. • b. One hour after the test material administration to each group, 20 μL of 2% formalin was injected subcutaneously into the sole of the right foot. • c. After administering […] to each subject, the time at which pain behavioral responses (licking, biting, etc.) appeared was measured in the intervals of 0 to 5 minutes and 20 to 40 minutes. • d. Grooming in regions other than the region where formalin was administered was not counted. • e.
The formalin test is a method of evaluating the degree of pain by subcutaneously injecting formalin into the dorsum of the hind paw of a mouse and then observing the behavior that appears thereafter. The degree of pain is evaluated by the number of times or duration of flinching responses. […]

SNL pain model = test: SNL pain model, Von Frey test; conditions: 2 mg/kg I.P.; one, three and seven hours after administration; FIG. 7
[1] = CHO-K1, read-out: hTRPV1 activity inhibited compared to the control group

T1 sequence (Q8NER1 whole entry): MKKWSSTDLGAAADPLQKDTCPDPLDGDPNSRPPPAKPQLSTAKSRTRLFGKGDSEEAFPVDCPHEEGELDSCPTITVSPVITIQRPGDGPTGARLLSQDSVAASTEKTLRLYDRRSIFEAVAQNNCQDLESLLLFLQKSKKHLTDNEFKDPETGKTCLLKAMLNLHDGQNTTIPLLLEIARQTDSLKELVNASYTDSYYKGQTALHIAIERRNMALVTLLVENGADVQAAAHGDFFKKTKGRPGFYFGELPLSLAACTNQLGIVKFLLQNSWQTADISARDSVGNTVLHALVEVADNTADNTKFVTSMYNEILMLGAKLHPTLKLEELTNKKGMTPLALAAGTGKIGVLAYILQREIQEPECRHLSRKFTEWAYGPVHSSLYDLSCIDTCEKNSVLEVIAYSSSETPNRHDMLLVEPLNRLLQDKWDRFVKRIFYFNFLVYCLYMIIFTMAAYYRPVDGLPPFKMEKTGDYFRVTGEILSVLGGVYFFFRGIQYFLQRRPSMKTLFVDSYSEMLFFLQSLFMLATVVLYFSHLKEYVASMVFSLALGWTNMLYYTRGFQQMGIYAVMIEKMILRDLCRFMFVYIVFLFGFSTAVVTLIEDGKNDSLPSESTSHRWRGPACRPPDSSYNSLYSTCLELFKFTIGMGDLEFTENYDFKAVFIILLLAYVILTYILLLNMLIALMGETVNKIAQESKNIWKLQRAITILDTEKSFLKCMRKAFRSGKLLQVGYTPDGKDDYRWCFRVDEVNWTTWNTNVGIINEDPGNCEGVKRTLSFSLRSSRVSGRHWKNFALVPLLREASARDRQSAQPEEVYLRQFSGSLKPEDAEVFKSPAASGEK

Row | Molecule | pain behavioral response (licking, biting) after capsaicin (pain caused by capsaicin) | inhibition at 0.001 µM (hTRPV1; [1]) | inhibition at 0.005 µM (hTRPV1; [1]) | inhibition at 0.01 µM (hTRPV1; CHO-K1, peptide at 10 nM, read-out: hTRPV1 activity inhibited compared to the control group) | inhibition at 0.05 µM (hTRPV1; CHO-K1, peptide at 50 nM, read-out: hTRPV1 activity inhibited compared to the control group) | inhibition at 0.1 µM (hTRPV1; [1]) | inhibition at 0.5 µM (hTRPV1; CHO-K1, peptide at 500 nM, read-out: hTRPV1 activity inhibited compared to the control group) | influx of calcium into TRPV1 channel (ΔF/F) (hTRPV1) | TRPV1 inhibitory activity / inhibition rate (screening) (hTRPV1) | inhibition at 0.0005 µM (hTRPV1; CHO-K1, peptide at 0.5 nM, read-out: hTRPV1 activity inhibited compared to the control group) | pain behavioral response threshold (Von Frey), after vs before administration (CCI pain model) | pain behavioral response threshold (Von Frey), after vs before administration (CIPN pain model; 4 mg/kg I.P.) | pain behavioral response (licking, biting) after formalin (pain caused by formalin; 8 mg/kg I.P. one hour before 2% formalin) | pain behavioral response threshold (Von Frey), after vs before administration (SNL pain model) | pain behavioral response threshold (Von Frey), after vs before administration (CIPN pain model; 2 mg/kg I.P.) | pain behavioral response (licking, biting) after formalin (pain caused by formalin; 4 mg/kg I.P. one hour before 2% formalin)
1 | C[C@H](NC(=O)[C@H](CCCCN)NC(=O)[C@@H](N)Cc1ccc(O)cc1)C(=O)N[C@@H](CC(N)=O)C(=O)N[C@@H](Cc1ccc(O)cc1)C(=O)N[C@@H](CS)C(=O)N[C@@H](CO)C(=O)NCC(=O)N[C@@H](CCC(N)=O)C(=O)N[C@@H](CS)C(=O)N[C@@H](Cc1ccc(O)cc1)C(=O)O [SEQ ID NO: 5, YKANYCSGQCY] (H-YKANYCSGQCY-OH; N-terminus and C-terminus assumed) | significant decrease of the pain behavioral response; also recorded: inhibited the pain caused by the peripheral and central sensitization | ~20% | 53% | 75% | 79% | 77% | 95% | the influx of calcium was significantly reduced | high inhibition rate of TRPV1 | – | – | – | – | – | – | –
2 | AGQCYMFMQKY [SEQ ID NO: 9] | inhibited the pain caused by the peripheral and central sensitization | – | – | – | – | – | – | – | high inhibition rate of TRPV1 | – | – | – | – | – | – | –
3 | SGQCYMFMQKY [SEQ ID NO: 6, SGQCYMFMQKY] | significant decrease of the pain behavioral response; also recorded: inhibited the pain caused by the peripheral and central sensitization | 16% | 51% | – | – | 70% | – | the influx of calcium was significantly reduced | high inhibition rate of TRPV1 | ~9% | – | – | – | – | – | –
4 | YGQCYMWMQKW [SEQ ID NO: 11] | significant decrease of the pain behavioral response; also recorded: inhibited the pain caused by the peripheral and central sensitization | – | – | – | – | – | – | – | high inhibition rate of TRPV1 | – | the pain behavioral response threshold increased after the administration compared to before the administration | the pain behavioral response threshold increased after the administration compared to before the administration | significant decrease of the pain behavioral response in the 2nd phase | the pain behavioral response threshold increased after the administration compared to before the administration | – | –
5 | YGQCYMYMQKW [SEQ ID NO: 12] | – | – | – | – | – | – | – | – | high inhibition rate of TRPV1 | – | the pain behavioral response threshold increased after the administration compared to before the administration | – | – | the pain behavioral response threshold increased after the administration compared to before the administration | the pain behavioral response threshold increased after the administration compared to before the administration | significant decrease of the pain behavioral response in the 2nd phase
